Assay results from patent US20140080813A1, “TRICYCLIC QUINOLINE AND QUINOXALINE DERIVATIVES” (ABBVIE DEUTSCHLAND GMBH & CO. KG, priority 2012, published 2014).
Counter-ions that a name gives are not always drawn.

Molecular target: T1, 5-HT2C receptor (Homo sapiens, UniProt P28335)
T1 construct: host or cells: U2OS
Assay: Functional activity: beta-arrestin2 recruitment to the 5-HT2C receptor in U2OS_HTR2C-β-Arrestin cells (DiscoverX)
Assay type: cell-based
Conditions: 1.5 h incubation, chemiluminescent β-galactosidase complementation readout, read-out: Potency (EC50) in functional assay
Procedure: The functional activity of compounds of formula I was assayed by incubation with U2OS_HTR2C—β-Arrestin cells (DiscoverX, 93-0289C3) to induce beta-arrestin2 recruitment to the 5-HT2C receptor. The agonist-induced recruitment and proximity of the receptor and beta-arrestin2 leads to complementation and formation of active β-galactosidase. The enzyme complementation results in enzyme activity, which is measured following the termination of the agonist incubation using DiscoveRx's detection reagent, which contains a chemiluminescent substrate which produces a high intensity signal. Cells were plated and a medium-change to a 1% serum containing medium was performed 24 h later. The next day, test compounds were added and incubated for 1.5 h before addition of detection reagent.
The response produced was measured and compared with the response produced by 10 [mu]M 5-HT or the maximal effect induced by 5-HT (defined as 100%) to which it was expressed as a percentage response (relative efficacy). Dose response curves were constructed using Graphpad Prism (Graph Software Inc.) or using in house adapted software using a 4 parameter dose response model with variable slope (fit=(Bottom+(Top−Bottom)/(1+10̂((LogEC50−x)*HillSlope))res=(y-fit)). Results are compiled in the table below.

T1 sequence (P28335 33-458): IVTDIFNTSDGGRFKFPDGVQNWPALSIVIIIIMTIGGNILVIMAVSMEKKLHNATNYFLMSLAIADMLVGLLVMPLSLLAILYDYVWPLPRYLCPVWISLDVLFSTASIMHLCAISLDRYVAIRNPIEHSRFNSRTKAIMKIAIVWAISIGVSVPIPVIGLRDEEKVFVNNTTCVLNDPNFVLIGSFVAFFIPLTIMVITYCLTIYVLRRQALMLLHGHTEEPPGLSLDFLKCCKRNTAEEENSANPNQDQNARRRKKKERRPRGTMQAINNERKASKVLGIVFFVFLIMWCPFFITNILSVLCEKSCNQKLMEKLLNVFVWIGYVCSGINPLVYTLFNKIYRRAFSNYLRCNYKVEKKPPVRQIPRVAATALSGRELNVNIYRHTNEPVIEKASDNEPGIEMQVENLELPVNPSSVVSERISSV
T1 sequence (P32121 whole entry partner): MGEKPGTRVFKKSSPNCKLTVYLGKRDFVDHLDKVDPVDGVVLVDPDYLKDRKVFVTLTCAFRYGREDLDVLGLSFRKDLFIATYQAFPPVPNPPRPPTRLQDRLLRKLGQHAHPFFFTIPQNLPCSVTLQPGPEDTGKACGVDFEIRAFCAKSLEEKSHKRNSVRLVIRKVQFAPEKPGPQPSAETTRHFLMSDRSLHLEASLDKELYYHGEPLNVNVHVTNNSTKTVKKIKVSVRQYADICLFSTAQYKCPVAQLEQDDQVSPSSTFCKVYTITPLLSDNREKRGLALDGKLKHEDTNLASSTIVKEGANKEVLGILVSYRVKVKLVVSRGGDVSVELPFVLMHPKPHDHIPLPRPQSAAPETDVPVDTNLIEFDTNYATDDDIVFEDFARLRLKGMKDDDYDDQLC

| Structure (SMILES) | EC50 |
| --- | --- |
| CC1(C(F)(F)F)CCN2CCNCc3cccc1c32 (single isomer, unassigned) [Example 8, 8-Methyl-8-(trifluoromethyl)-2,3,4,6,7,8-hexahydro-1H-[1,4]diazepino[6,7,1-ij]quinoline] | 0.02 to 0.2 µM |
| CC1(C(F)(F)F)CCN2CCNCc3cccc1c32 (single isomer, unassigned) [Example 9, 8-Methyl-8-(trifluoromethyl)-2,3,4,6,7,8-hexahydro-1H-[1,4]diazepino[6,7,1-ij]quinoline] | < 0.02 µM |
| CC1CN2CCNCc3cccc(c32)C1(C)C (single isomer, unassigned) [Example 27] | 0.2 to 1 µM |
| CC1CN2CCNCc3cccc(c32)C1(C)C (single isomer, unassigned) [Example 28] | 0.02 to 0.2 µM |
| CC1(C)CCN2CCNCc3cccc1c32 [Example 1, 8,8-Dimethyl-2,3,4,6,7,8-hexahydro-1H-[1,4]diazepino[6,7,1-ij]quinoline] | 0.02 to 0.2 µM |
| c1cc2c3c(c1)C1(CCCC1)CCN3CCNC2 [Example 6, 1,2,3,4,6,7-Hexahydrospiro[[1,4]diazepino[6,7,1-ij]quinoline-8,1′-cyclopentane]] | 0.02 to 0.2 µM |
| c1cc2c3c(c1)N1CCC[C@@H]1CN3CCNC2 [Example 16, (R)-5,6,7,9,9a,10,11,12-Octahydro-4H-[1,4]diazepino[1,7,6-de]pyrrolo[1,2-a]quinoxaline bis(2,2,2-trifluoroacetate)] | 0.2 to 1 µM |
| CC1(C)CCN2CCNCc3cc(Cl)cc1c32 [Example 19, 10-Chloro-8,8-dimethyl-2,3,4,6,7,8-hexahydro-1H-[1,4]diazepino[6,7,1-ij]quinoline bis(2,2,2-trifluoroacetate)] | 0.02 to 0.2 µM |
| CC1(C)CCN2CCNCc3ccc(F)c1c32 [Example 22, 9-Fluoro-8,8-dimethyl-2,3,4,6,7,8-hexahydro-1H-[1,4]diazepino[6,7,1-ij]quinoline] | 0.02 to 0.2 µM |
| c1cc2c3c(c1)C1(CCC1)CCN3CCNC2 [Example 25, 1′,2′,3′,4′,6′,7′-Hexahydrospiro[cyclobutane-1,8′-[1,4]diazepino[6,7,1-ij]quinoline], hydrochloride] | 0.02 to 0.2 µM |
| Fc1ccc2c3c1C1(CCC1)CCN3CCNC2 [Example 26, 9′-Fluoro-1′,2′,3′,4′,6′,7′-hexahydrospiro[cyclobutane-1,8′-[1,4]diazepino[6,7,1-ij]quinoline], hydrochloride] | < 0.02 µM |
